Assays:
Experiment in all cases: relative viability (nuclei count vs DMSO), 5 days (fraction); higher = more cells survive
Pictilisib + Trametinib = compound: CS(=O)(=O)N1CCN(Cc2cc3nc(-c4cccc5[nH]ncc45)nc(N4CCOCC4)c3s2)CC1 [Pictilisib] + CC(=O)Nc1cccc(-n2c(=O)n(C3CC3)c(=O)c3c(Nc4ccc(I)cc4F)n(C)c(=O)c(C)c32)c1 [Trametinib] (partner 0.02 µM)
Outline: (§1)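 Each reported value is a median over duplicate plates. It expresses relative viability: treated-well nuclei count divided by vehicle-well nuclei count. Lung cancer cell lines in 1536-well plates were dosed by pin tool a day after seeding, alone with one drug or with a fixed anchor-drug dose plus five library-drug doses (not always all listed) in √10 steps, and nuclei were counted after 5 days.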

Pictilisib + Olaparib = compound: CS(=O)(=O)N1CCN(Cc2cc3nc(-c4cccc5[nH]ncc45)nc(N4CCOCC4)c3s2)CC1 [Pictilisib] + O=C(c1cc(Cc2n[nH]c(=O)c3ccccc23)ccc1F)N1CCN(C(=O)C2CC2)CC1 [Olaparib] (partner 8 µM)
Outline: as §1

MK-2206 + Linsitinib = compound: NC1(c2ccc(-c3nc4ccn5c(=O)[nH]nc5c4cc3-c3ccccc3)cc2)CCC1 [MK-2206] + C[C@]1(O)C[C@@H](c2nc(-c3ccc4ccc(-c5ccccc5)nc4c3)c3c(N)nccn32)C1 [Linsitinib] (partner 1 µM)
Outline: as §1

MK-2206 + Decitabine = compound: NC1(c2ccc(-c3nc4ccn5c(=O)[nH]nc5c4cc3-c3ccccc3)cc2)CCC1 [MK-2206] + Nc1ncn([C@H]2C[C@H](O)[C@@H](CO)O2)c(=O)n1 [Decitabine] (partner 2 µM)
Outline: as §1

MK-2206 + Palbociclib = compound: NC1(c2ccc(-c3nc4ccn5c(=O)[nH]nc5c4cc3-c3ccccc3)cc2)CCC1 [MK-2206] + CC(=O)c1c(C)c2cnc(Nc3ccc(N4CCNCC4)cn3)nc2n(C2CCCC2)c1=O [Palbociclib] (partner 0.5 µM)
Outline: as §1

| Cell Line | relative viability (Pictilisib + Trametinib; first compound 0.02 µM) | relative viability (Pictilisib + Trametinib; first compound 0.06325 µM) | relative viability (Pictilisib + Trametinib; first compound 0.6325 µM) | relative viability (Pictilisib + Trametinib; first compound 2 µM) | relative viability (Pictilisib + Olaparib; first compound 0.02 µM) | relative viability (Pictilisib + Olaparib; first compound 0.06325 µM) | relative viability (Pictilisib + Olaparib; first compound 0.6325 µM) | relative viability (Pictilisib + Olaparib; first compound 2 µM) | relative viability (MK-2206 + Linsitinib; first compound 0.01 µM) | relative viability (MK-2206 + Linsitinib; first compound 0.03162 µM) | relative viability (MK-2206 + Linsitinib; first compound 0.3162 µM) | relative viability (MK-2206 + Linsitinib; first compound 1 µM) | relative viability (MK-2206 + Decitabine; first compound 0.01 µM) | relative viability (MK-2206 + Decitabine; first compound 0.03162 µM) | relative viability (MK-2206 + Decitabine; first compound 0.3162 µM) | relative viability (MK-2206 + Decitabine; first compound 1 µM) | relative viability (MK-2206 + Palbociclib; first compound 0.01 µM) | relative viability (MK-2206 + Palbociclib; first compound 0.03162 µM) | relative viability (MK-2206 + Palbociclib; first compound 0.3162 µM) | relative viability (MK-2206 + Palbociclib; first compound 1 µM) |
| --- | --- | --- | --- | --- | --- | --- | --- | --- | --- | --- | --- | --- | --- | --- | --- | --- | --- | --- | --- | --- |
| NCI-H1755 | 0.821 | 0.667 | 0.718 | 0.327 | 0.872 | 0.84 | 0.806 | 0.403 | 0.997 | 0.996 | 0.903 | 0.876 | 0.724 | 0.71 | 0.726 | 0.638 | 0.461 | 0.419 | 0.388 | 0.43 |
| NCI-H661 | 0.532 | 0.589 | 0.469 | 0.356 | 0.85 | 0.746 | 0.815 | 0.563 | 0.583 | 0.725 | 0.665 | 0.541 | 0.538 | 0.574 | 0.591 | 0.528 | 0.428 | 0.42 | 0.354 | 0.349 |
| NCI-H1944 | 0.451 | 0.349 | 0.337 | 0.183 | 0.395 | 0.381 | 0.368 | 0.232 | 1.27 | 1.17 | 1.15 | 1.17 | 0.414 | 0.449 | 0.508 | 0.446 | 0.338 | 0.332 | 0.3 | 0.296 |
| NCI-H23 | 0.367 | 0.319 | 0.241 | 0.163 | 0.298 | 0.389 | 0.355 | 0.198 | 0.583 | 0.625 | 0.58 | 0.628 | 0.325 | 0.318 | 0.295 | 0.332 | 0.555 | 0.5 | 0.427 | 0.459 |
| NCI-H1648 | 0.363 | 0.401 | 0.236 | 0.222 | 0.701 | 0.561 | 0.355 | 0.264 |  |  |  |  | 0.405 | 0.574 | 0.483 | 0.575 | 0.229 | 0.269 | 0.301 | 0.331 |
| NCI-H522 | 0.884 | 0.721 | 0.572 | 0.43 | 0.619 | 0.663 | 0.561 | 0.493 |  |  |  |  | 0.701 | 0.677 | 0.612 | 0.654 | 1.04 | 1.12 | 1.05 | 1.09 |
| HCC-366 | 0.374 | 0.2 | 0.157 | 0.0661 | 0.401 | 0.357 | 0.199 | 0.077 | 0.637 | 0.675 | 0.364 | 0.384 | 0.358 | 0.334 | 0.339 | 0.32 | 0.392 | 0.38 | 0.225 | 0.244 |
| EBC-1 |  |  |  |  | 0.681 | 0.741 | 0.564 | 0.243 | 0.795 | 0.951 | 0.681 | 0.557 |  |  |  |  |  |  |  |  |
| ChaGo-K-1 | 0.813 | 0.873 | 0.79 | 0.631 | 0.44 | 0.381 | 0.5 | 0.332 |  |  |  |  | 0.533 | 0.511 | 0.514 | 0.526 | 0.961 | 0.98 | 0.937 | 0.932 |
| LCLC-97TM1 | 0.204 | 0.226 | 0.142 | 0.0739 | 0.446 | 0.379 | 0.289 | 0.112 | 0.219 | 0.171 | 0.177 | 0.174 | 0.242 | 0.259 | 0.26 | 0.206 | 0.264 | 0.233 | 0.191 | 0.198 |
| NCI-H1299 |  |  |  |  | 0.996 | 1.01 | 1.03 | 0.858 | 0.947 | 1.08 | 0.977 | 0.965 |  |  |  |  |  |  |  |  |
| IA-LM |  |  |  |  | 0.952 | 0.987 | 0.792 | 0.516 | 0.55 | 0.632 | 0.597 | 0.409 |  |  |  |  |  |  |  |  |
| CAL-12T | 0.332 | 0.331 | 0.221 | 0.178 | 0.761 | 0.785 | 0.754 | 0.523 | 0.742 | 0.877 | 0.761 | 0.739 |  |  |  |  | 0.383 | 0.277 | 0.543 | 0.411 |
| NCI-H596 | 0.795 | 0.764 | 0.515 | 0.327 | 0.621 | 0.642 | 0.567 | 0.338 | 1.14 | 1.11 | 0.846 | 0.734 | 1.03 | 1.03 | 0.99 | 0.914 |  |  |  |  |
| A549 |  |  |  |  | 0.441 | 0.355 | 0.283 | 0.211 | 0.657 | 0.651 | 0.574 | 0.512 | 0.304 | 0.26 | 0.24 | 0.294 |  |  |  |  |
| NCI-H2170 | 0.864 | 0.916 | 0.784 | 0.587 | 0.608 | 0.508 | 0.562 | 0.33 |  |  |  |  | 0.482 | 0.462 | 0.462 | 0.443 | 0.4 | 0.391 | 0.354 | 0.343 |
| NCI-H1563 |  |  |  |  |  |  |  |  | 1.12 | 1.22 | 0.797 | 0.742 |  |  |  |  |  |  |  |  |
| Calu-6 |  |  |  |  | 0.656 | 0.554 | 0.589 | 0.519 |  | 0.961 | 0.963 | 0.926 |  |  |  |  |  |  |  |  |
| NCI-H1650 | 0.595 | 0.662 | 0.506 | 0.382 | 0.593 | 0.759 | 0.761 | 0.691 |  |  |  |  | 0.465 | 0.419 | 0.441 | 0.469 | 0.291 | 0.334 | 0.331 | 0.356 |
| NCI-H2342 | 0.77 | 0.747 | 0.724 | 0.476 | 0.446 | 0.379 | 0.406 | 0.242 |  |  |  |  | 0.687 | 0.792 | 0.787 | 0.629 | 0.58 | 0.51 | 0.469 | 0.473 |
